Test results as given in ChEMBL document CHEMBL1146007, “Binding of sulfonyl-containing arylalkylamines at human 5-HT6 serotonin receptors” (J Med Chem, 2006).

Molecular target: 5-hydroxytryptamine receptor 6 (Homo sapiens, UniProt P50406)
Assay: Binding affinity to human 5HT6 receptor in HEK293 cells by radioligand binding assay
Format: cell-based

5-hydroxytryptamine receptor 6, sequence (P50406 whole entry): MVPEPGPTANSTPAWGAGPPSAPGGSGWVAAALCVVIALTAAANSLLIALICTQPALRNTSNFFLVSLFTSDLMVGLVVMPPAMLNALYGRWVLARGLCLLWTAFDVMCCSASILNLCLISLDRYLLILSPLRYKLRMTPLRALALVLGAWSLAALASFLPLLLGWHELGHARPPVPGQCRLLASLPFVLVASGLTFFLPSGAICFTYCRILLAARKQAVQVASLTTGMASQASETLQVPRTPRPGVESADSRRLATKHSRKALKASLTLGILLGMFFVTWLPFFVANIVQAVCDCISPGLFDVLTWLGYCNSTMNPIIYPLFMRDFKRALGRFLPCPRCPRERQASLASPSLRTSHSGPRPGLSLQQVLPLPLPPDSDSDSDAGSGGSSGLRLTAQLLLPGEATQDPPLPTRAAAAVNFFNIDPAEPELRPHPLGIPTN

SMILES	Ki [nM]
O=S(=O)(Nc1cccc(N2CCNCC2)c1)c1ccccc1	62
O=S(=O)(c1ccccc1)c1ccc(N2CCNCC2)cc1	6.9
NCCc1cccc(NS(=O)(=O)c2ccccc2)c1	21
NCc1cccc(NS(=O)(=O)c2ccccc2)c1	290
NCCCc1cccc(NS(=O)(=O)c2ccccc2)c1	230
CN(C)CCc1cccc(NS(=O)(=O)c2ccccc2)c1	52
NCCc1cccc(S(=O)(=O)Nc2ccccc2)c1	70
NCCc1cccc(S(=O)(=O)c2ccccc2)c1	50
NCCc1cccc(Sc2ccccc2)c1	115
COc1ccc(NS(=O)(=O)c2ccccc2)cc1CCN	17
NCCc1ccc(S(=O)(=O)c2ccccc2)cc1	37
O=S(=O)(Nc1ccc(N2CCNCC2)cc1)c1ccccc1	85
O=S(=O)(c1ccccc1)c1cccc(N2CCNCC2)c1	1.2
Nc1cccc(NS(=O)(=O)c2ccccc2)c1	2840
CNCCc1cccc(NS(=O)(=O)c2ccccc2)c1	38
CN(C)CCc1ccn(S(=O)(=O)c2ccccc2)c1	15
NCCc1ccc(NS(=O)(=O)c2ccccc2)cc1	38
O=S(=O)(c1ccccc1)c1ccccc1N1CCNCC1	4000
